Literature values, collected in patent US20140328890A1, “Silver Iodate Compounds Having Antimicrobial Properties” (priority 2010, published 2014).

Conditions: published literature

## [Ag+].[Ag+].[Ag+].[Ag+].[Ag+].[O-][I+]([O-])([O-])([O-])([O-])[O-] [Ag5IO6, pentasilver hexaoxoiodate]
  sensitivity to light and air: insensitive to light and air
